# Results taken from article PMC8044163, “Vitamin D and lumisterol derivatives can act on liver X receptors (LXRs)” (Scientific Reports, 2021).
# Test system: murine dermal fibroblasts
# Assay: RNA-Seq of newborn murine dermal fibroblasts
# Type: cell-based, mouse
# Conditions: 10^−7 M, 24 h
# Protocol: All animal studies followed guidelines outlined by the NIH Guide for the Care and Use of Laboratory Animals and protocols were approved by the Institutional Animal Care and Use Committee at the NIEHS or the UAB. […] Skin samples from newborn C57BL/6 mice were collected at the NIEHS. Dermal fibroblasts were isolated from the skin of newborn mice, 1–2 day old. Briefly, we followed the protocols described previously. The skin was washed in PBS, cut into smaller pieces and incubated in 2.4 U/ml of dispase II (Roche) overnight at 4 °C. The dermis was separated from the epidermis and incubated in 0.1% collagenase (Roche) at 4 °C overnight. […] Single cell suspension was prepared by pipetting and draining through a cell strainer. After centrifugation, cell pellets were suspended in DMEM medium containing 10% charcoal-stripped fetal bovine serum (cFBS), mouse fibroblasts growth factor (FGF) and 1% antibiotic, and inoculated into tissue culture dishes (Midwest Scientific, TPP). Cells, in early passages, from different mice were pooled together to provide representative samples for experiments. Fibroblasts were cultured in Petri dishes (10 cm in diameter) in DMEM and 10% cFBS and triplicate semi-confluent cultures were treated as described.
# Triplicate cultures of murine fibroblasts were used for RNA isolation (RNAeasy Micro kit, Qiagen), the RNA samples were combined for each condition and at least 200 ng of RNA for each sample was used to create libraries for RNA sequencing by BGI Americas Corporation Service (Cambridge, MA)[67]. Quality of RNA and its concentration were determined using Agilent 2100.
# The raw sequence FASTQ files were aligned to Gencode’s GRCm38 p4 Release M11 genome using STAR version 2.5.4b (parameters used: –outReadsUnmapped Fastx; –outSAMtype BAM SortedByCoordinate; –outSAMattributes All; –outFilterIntronMotifs RemoveNoncanonicalUnannotated)[69]. The abundance of transcripts was calculated from the alignments using Cufflinks version 2.2.1 (parameters used: –G; –L; –library-type fr-firststrand). Samples were merged using default parameters with Cuffmerge[70],[71]. The differential expression was calculated using Cuffdiff’s default parameters. The raw data have been deposited at the NCBI GEO (GSE145818).
smiles,measurement,setting,value
"CC(C)CCC[C@](C)(O)[C@H]1CC[C@H]2[C@@H]3CC=C4C[C@@H](O)CC[C@]4(C)[C@H]3CC[C@@]21C [20(OH)C, 20-hydroxycholesterol, reference compound]",Adh7 expression level,,0.7754
same,Adh7 log2(fold_change) vs control,,1.595
same,Aqp11 expression level,,0.8073
same,Aqp11 log2(fold_change) vs control,,1.853
same,Arid3b expression level,,0.9108
same,Arid3b log2(fold_change) vs control,,-1.9
same,Bicd1 expression level,,0.39
same,Bicd1 log2(fold_change) vs control,,-2.453
same,Btc expression level,,1.112
same,Btc log2(fold_change) vs control,,2.1992
same,Car9 expression level,,1.738
same,Car9 log2(fold_change) vs control,,-2.435
same,Cbs expression level,,0.5333
same,Cbs log2(fold_change) vs control,,-1.867
same,Ccl4 expression level,,0.1695
same,Ccl4 log2(fold_change) vs control,,-2.322
same,Cd68 expression level,,2.992
same,Cd68 log2(fold_change) vs control,,1.391
same,Cd200 expression level,,0.446
same,Cd200 log2(fold_change) vs control,,-1.664
same,Cherp expression level,,31.8463
same,Cherp log2(fold_change) vs control,,-2.536
same,Clec2g expression level,,0
same,Clec2g log2(fold_change) vs control,,-inf
same,Cnnm4 expression level,,3.864
same,Cnnm4 log2(fold_change) vs control,,-3.699
same,Cox15 expression level,,14.0674
same,Cox15 log2(fold_change) vs control,,1.269
same,Cpa2 expression level,,0.3139
same,Cpa2 log2(fold_change) vs control,,-2.322
same,Ctrl expression level,,0.4557
same,Ctrl log2(fold_change) vs control,,-1.16
same,Dcun1d1 expression level,,3.938
same,Dcun1d1 log2(fold_change) vs control,,-1.746
same,Defb42 expression level,,0.3618
same,Defb42 log2(fold_change) vs control,,-1.335
same,Dtx1 expression level,,0.6172
same,Dtx1 log2(fold_change) vs control,,-1.429
same,Ehf expression level,,0.3171
same,Ehf log2(fold_change) vs control,,-1.391
same,Ercc2 expression level,,15.1049
same,Ercc2 log2(fold_change) vs control,,-3.489
same,Erh expression level,,1.52
same,Erh log2(fold_change) vs control,,-2.047
same,Fmnl1 expression level,,0.0589
same,Fmnl1 log2(fold_change) vs control,,-3.9854
same,Gys2 expression level,,0
same,Gys2 log2(fold_change) vs control,,-inf
same,Hist1h2ab expression level,,1.148
same,Hist1h2ab log2(fold_change) vs control,,2
same,Hist1h2bg expression level,,0.5658
same,Hist1h2bg log2(fold_change) vs control,,-2
same,Hist1h2bh expression level,,0
same,Hist1h2bh log2(fold_change) vs control,,-inf
same,Hist1h4c expression level,,0.4039
same,Hist1h4c log2(fold_change) vs control,,-1
same,Isl1 expression level,,0.3429
same,Isl1 log2(fold_change) vs control,,-1.227
same,Krt19 expression level,,12.2793
same,Krt19 log2(fold_change) vs control,,1.279
same,Larp1b expression level,,3.613
same,Larp1b log2(fold_change) vs control,,-2.853
same,Lhx6 expression level,,2.203
same,Lhx6 log2(fold_change) vs control,,-2.404
same,Lsm5 expression level,,0.8846
same,Lsm5 log2(fold_change) vs control,,-1.59
same,M1ap expression level,,2.484
same,M1ap log2(fold_change) vs control,,2.0059
same,Med9os expression level,,0.3191
same,Med9os log2(fold_change) vs control,,-2.7
same,Nckipsd expression level,,8.765
same,Nckipsd log2(fold_change) vs control,,1.073
same,Nr3c2 expression level,,0.1285
same,Nr3c2 log2(fold_change) vs control,,-3.098
same,Nr6a1 expression level,,0.3735
same,Nr6a1 log2(fold_change) vs control,,-2.304
same,Ntrk3 expression level,,0.3696
same,Ntrk3 log2(fold_change) vs control,,-2.33
same,Parvg expression level,,0.09605
same,Parvg log2(fold_change) vs control,,-3.946
same,Pde4dip expression level,,20.5427
same,Pde4dip log2(fold_change) vs control,,-7.578
same,Psd4 expression level,,0.1792
same,Psd4 log2(fold_change) vs control,,-3.129
same,Ptpa expression level,,149.828
same,Ptpa log2(fold_change) vs control,,1.1778
same,Ptpn6 expression level,,1.723
same,Ptpn6 log2(fold_change) vs control,,-2.798
same,Rnu3a expression level,,0
same,Rnu3a log2(fold_change) vs control,,-inf
same,Rpph1 expression level,,0.6576
same,Rpph1 log2(fold_change) vs control,,-1
same,Rsad1 expression level,,1.413
same,Rsad1 log2(fold_change) vs control,,-1.15
same,Saa1 expression level,,0.1908
same,Saa1 log2(fold_change) vs control,,-2.322
same,Samd12 expression level,,0.5476
same,Samd12 log2(fold_change) vs control,,-2.717
same,Scn8a expression level,,0.2978
same,Scn8a log2(fold_change) vs control,,-1.43
same,Sgca expression level,,0.3806
same,Sgca log2(fold_change) vs control,,-1.697
same,Slc15a4 expression level,,13.0176
same,Slc15a4 log2(fold_change) vs control,,-2.132
same,Slc16a5 expression level,,0.4564
same,Slc16a5 log2(fold_change) vs control,,-1.015
same,Snhg9 expression level,,7.471
same,Snhg9 log2(fold_change) vs control,,-1.322
same,St7 expression level,,21.7063
same,St7 log2(fold_change) vs control,,-1.667
same,Stmn1 expression level,,6.2905
same,Stmn1 log2(fold_change) vs control,,2.02
same,Susd1 expression level,,2.158
same,Susd1 log2(fold_change) vs control,,1.637
same,Syt8 expression level,,0.2562
same,Syt8 log2(fold_change) vs control,,-3.638
same,Syt12 expression level,,1.318
same,Syt12 log2(fold_change) vs control,,-1.636
same,Tldc2 expression level,,0
same,Tldc2 log2(fold_change) vs control,,-inf
same,Tnnc2 expression level,,0.1558
same,Tnnc2 log2(fold_change) vs control,,-2.361
same,Unc5c expression level,,0.4963
same,Unc5c log2(fold_change) vs control,,-1.133
same,Wdr17 expression level,,0.677
same,Wdr17 log2(fold_change) vs control,,-1.73
same,Zbtb18 expression level,,5.289
same,Zbtb18 log2(fold_change) vs control,,-3.07
same,Zfp618 expression level,,2.236
same,Zfp618 log2(fold_change) vs control,,-1.093
same,"number of genes downregulated, FC ≥ 2",,498
same,"number of genes upregulated, FC ≥ 2",,564
same,number of genes solely downregulated,FC ≥ 2,109 (10.3%)
same,number of genes solely upregulated,FC ≥ 2,291 (19.4%)
